Values of other authors as cited in US20070213390A1, “HMGCoA reductase inhibitor-angiotensin converting enzyme inhibitor compounds” (pSivida Inc., priority 2005, published 2007).

Target: T1, HMGR (HMGCoA reductase) (Homo sapiens, UniProt P04035)
T1 sequence (P04035 426-888 limits assumed): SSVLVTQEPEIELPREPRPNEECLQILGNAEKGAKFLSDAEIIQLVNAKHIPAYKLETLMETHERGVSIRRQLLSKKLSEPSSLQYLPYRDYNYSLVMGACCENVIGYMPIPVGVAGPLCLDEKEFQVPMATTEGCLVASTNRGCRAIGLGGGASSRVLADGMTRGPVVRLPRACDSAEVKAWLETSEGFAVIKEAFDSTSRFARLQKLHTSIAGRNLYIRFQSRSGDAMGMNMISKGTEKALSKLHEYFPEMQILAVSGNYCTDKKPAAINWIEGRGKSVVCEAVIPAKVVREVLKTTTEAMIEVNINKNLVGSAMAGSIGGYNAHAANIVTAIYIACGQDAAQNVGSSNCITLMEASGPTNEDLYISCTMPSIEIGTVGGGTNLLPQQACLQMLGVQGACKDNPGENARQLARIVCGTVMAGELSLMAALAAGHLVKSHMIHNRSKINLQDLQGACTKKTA
Conditions: substrate of HMGR; read-out: Michaelis constant, Km, for HMG-CoA

Km: 4 µM
Structure (SMILES): CC(O)(CC(=O)O)CC(=O)SCCNC(=O)CCNC(=O)[C@H](O)C(C)(C)COP(=O)(O)OP(=O)(O)OC[C@H]1O[C@@H](n2cnc3c(N)ncnc32)[C@H](O)[C@@H]1OP(=O)(O)O (stereo partly shown) [HMG-CoA, 3-hydroxy-3-methylglutaryl CoA]
